This assay relates to Rat-1 fibroblast cells. As to the kind of experiment: Methylene blue viability assay, Rat-1. In kind it is cell-based. The settings on record: FIG. 4C. The source says:
Cell lines—Human breast cancer cell lines SKBR3 [Peles E et al. EMBO J. (1993) 12(3):961-71] and MCF7 [Faigenbloom L et al., Mol Syst Biol. (2015) 11(12):845] and human glioblastoma U87 [Goldberg L et al. Cancer Res. (2006) 66(24):11709-17] cell line, as well as Rat-1 fibroblast cells and H-Ras-transformed Rat-1 cells (EJ cells) [Marom M et al. J Biol Chem. (1995) 270(38):22263-70] and human Panc-1 and MIA PaCa-2 pancreatic cell lines (Rak R et al. Oncoscience. 2014 1(1):39-48; Weisz B et al. Oncogene (1999) 18, 2579±2588) were all grown in Dulbecco's modified Eagle's medium (DMEM; Biological Industries, Beithaemek, Israel). Human colorectal cancer cell lines DLD-1 (ATTC Cat No. CCL-221), HCT-116 (ATTC Cat No. CCL-247) and LNCaP prostate cancer cells were grown in Roswell Park Memorial Institute 1640 (RPMI 1640) medium and McCoy's 5A media, respectively (Sigma-Aldrich). All media were supplemented with antibiotics and 10% heat-inactivated fetal bovine serum (FBS; Gibco). Human breast cell line MCF10A [Bott A et al. Oncotarget. […]
Methylene blue viability assay—Cells were plated in 96-wells plates at cell densities of 1.5×10^3 (EJ, DLD-1), 3×10^3 (Rat-1, HCT-116, U87), 5×10^3 (SKBR3, MCF7) and 6×10^3 (MCF10A) cells/well. […] IC-50 values were calculated using a non-linear regression model (logarithmic inhibitor vs. normalized response-variable slope) with the GraphPad Prism 6 software.

The star is where a group is joined. Myristoyl = CCCCCCCCCCCCCC(=O)*

The values that follow come from patent US20260200982A1, “HER RECEPTOR DERIVED PEPTIDES AND METHODS OF USE THEREOF” (Ramot at Tel-Aviv University Ltd., priority 2022, published 2026).

On to “Myr-RRRHIVRKRTLRRLL-OH (Myristoyl-RRRHIVRKRTLRRLL-OH; SMILES CCCCCCCCCCCCCC(=O)N[C@@H](CCCNC(=N)N)C(=O)N[C@@H](CCCNC(=N)N)C(=O)N[C@@H](CCCNC(=N)N)C(=O)N[C@@H](Cc1c[nH]cn1)C(=O)N[C@H](C(=O)N[C@H](C(=O)N[C@@H](CCCNC(=N)N)C(=O)N[C@@H](CCCCN)C(=O)N[C@@H](CCCNC(=N)N)C(=O)N[C@H](C(=O)N[C@@H](CC(C)C)C(=O)N[C@@H](CCCNC(=N)N)C(=O)N[C@@H](CCCNC(=N)N)C(=O)N[C@@H](CC(C)C)C(=O)N[C@@H](CC(C)C)C(=O)O)[C@@H](C)O)C(C)C)[C@@H](C)CC) [myr-NLS]”, for which the “viability of non-transformed Rat-1 cells” value was “had no effect”.
